# How the values were obtained:
# human red blood cells = assay: Hemolysis in human blood; assay type: cell-based
# Protocol: Stability of Test Articles at Different pH Values. 10 mM stock solutions of COMPOUND A were prepared in DMSO. From this stock solution, a single concentration in a 10 μL aliquot was added to three fluid matrices: SGF at pH 2.0 (gastric), SIF at pH 6.0 (upper intestine), and PBS at 7.4 (systemic). The final volume was 1 mL (0.1 mM). The preparations were then incubated at 37° C. and samples were collected at 0, 15, 30, 60, and 120 min for analysis of parent material by LC/MS/MS. The collected sample was quenched in acetonitrile/0.1% formic acid mixture. Red Blood Cell (RBC): Human and rat blood were centrifuged to separate out red blood cells at […] for 15 min. The upper plasma level was aspirated with a micropipette and placed in a bleach solution for disposal. The RBC pellet was resuspended in sterile isotonic saline. The pellet was gently resuspended by rocking the tube. […]
# Stability in Human and Rat Red Blood cells and Hemolysis. […] After centrifugation, 70 μL of supernatant (without disturbing the pellet) was transferred to a clean and clear polystyrene flat bottomed 96-well plate and the absorbance of the sample at a single wavelength was measured using a Bio Tech Synergy Hl Plate Reader at a wavelength of 410 nm. […] Stability was measured by measuring loss of parent compound using LC/MS/MS.
# [1] = Stability in rat gut microbiota (fecal matter); assay type: in vitro ADME; conditions: pH 6 and pH 7.4, 0.5 mM
# Protocol: Stability in Rat and Human Gut Microbiota. Rat fecal material was obtained and weighed. One capsule of the raw probiotics was crushed and weighed prior to use. The weighed samples were then solubilized in PBS at pH 6.0 and 7.4 to extract microorganisms. The samples were centrifuged at 18,000×g for 10 min to remove particulates and the supernatant was used to evaluate test article stability. An aliquot (50 μL) of the COMPOUND A stock solution was added to the fecal extract (final concentration 0.5 mM) and allowed to incubate at 37° C. Aliquots were collected at 0, 15, 30, 60, and 120 min and analyzed by LC/MS/MS to determine stability of the parent molecule. The collected sample was quenched in acetonitrile/0.1% formic acid mixture.
# recognition memory = assay: Novel object recognition, scopolamine-impairment model, 3 hr retention interval
# prepulse inhibition = assay: Prepulse inhibition (PPI) of the auditory startle response, apomorphine-impairment model
# Protocol: Four standard startle chambers (San Diego Instruments, San Diego, CA) were used. […] The tube is mounted on a plastic frame, under which a piezoelectric accelerometer is mounted, which records and transduces the motion of the tube. Three days before drug testing the experimental subjects were each placed in one of the startle test chambers for a period of 10 minutes (without any startle stimuli) as an initial period of acclimation to the apparatus. Two days before drug testing the animals were again placed in the test chamber and then exposed to 12 startle stimuli and to each prepulse level 3 times (see below). This procedure was done to reduce the highly variable responses to the initial exposures to the startle stimuli as well as to ensure that the prepulse stimuli (alone) had no significant effect on the startle response. One day before drug testing, a full 60 trial PPI test session (as subsequently described for the drug testing experiments, see below) was conducted for all experimental subjects.
# On the day of drug testing the rats were transported to the startle chamber room and left undisturbed for at least 30 min. […] After this period, the rats received 12 startle trials, 12 no-stimulus trials, and 12 trials of each of the prepulse/startle trials (see below) for a total of 60 trials. The intertrial interval ranged from 10 to 30 s, and the total session lasted about 25-30 min. The startle trials consisted of single 120 dB white noise bursts lasting 20 ms.
# The prepulse inhibition trials consisted of a prepulse (20 ms burst of white noise with intensities of 75, 80, or 85 dB) followed, 100 ms later, by a startle stimulus (120 dB, 20 ms white noise). During the no-stimulus trial, no startle noise was presented, but the movement of the rat was recorded. This represented a control trial for detecting differences in overall activity. The 60 different trials were presented pseudo-randomly, ensuring that each trial was presented 12 times and that no two consecutive trials were identical. The resulting movement of the rat in the startle chamber was measured during 100 ms after startle stimulus onset (sampling frequency 1 kHz), rectified, amplified, and fed into a computer that determined the maximal response that occurred during the 100-ms period. Basal startle amplitude was determined as the mean amplitude of the 12 startle trials. Prepulse inhibition was calculated according to the formula 100−100%×(PPx/P120), in which PPx is the mean of the 12 prepulse inhibition trials (i.e., for each individual prepulse level), and p120 is the basal startle amplitude. The average level of PPI was also calculated (average of the responses to pp75, pp80, or pp85) and analyzed separately.
# [2] = COMPOUND C 60 mg/kg PO + apomorphine
# [3] = COMPOUND C 90 mg/kg PO + apomorphine
# [4] = COMPOUND C 120 mg/kg PO + apomorphine
SMILES,"hemolysis (% RBC lysis) (human red blood cells; human blood, 25, 50, 100 μM, 1 hr)","EC50 (% RBC lysis) (human red blood cells; human blood, 60 min exposure)",stability in rat fecal matter [1],d2 ratios: effect on scopolamine impairment (recognition memory; COMPOUND A 90 mg/kg p.o. + scopolamine),"preference for the novel object (exploration times) (recognition memory; COMPOUND A 30, 60, and 90 mg/kg p.o. + scopolamine, 3 hr delay)",% PPI (mean ± SEM) (prepulse inhibition; [2]),Acoustic Startle (AU) (mean ± SEM) (prepulse inhibition; [2]),% PPI (mean ± SEM) (prepulse inhibition; [3]),Acoustic Startle (AU) (mean ± SEM) (prepulse inhibition; [3]),% PPI (mean ± SEM) (prepulse inhibition; [4]),Acoustic Startle (AU) (mean ± SEM) (prepulse inhibition; [4]),"attenuation of the effects of apomorphine on PPI (prepulse inhibition; COMPOUND C 60, 90, 120 mg/kg PO)"
CCOc1ccccc1OC[C@@H]1CN(C(=O)OC(C)OC(=O)[C@@H](N)C(C)C)CCO1 (stereo partly drawn) [COMPOUND A],no detectable hemolysis,outside the concentration range tested,time-dependent decrease in the amount of parent compound,significantly attenuated this effect of scopolamine,significant (p<0.05) preference for the novel object,,,,,,,
CCOc1ccccc1OC[C@@H]1CN(C(=O)OC(OC(=O)[C@H](N)C(C)C)C(C)C)CCO1 (stereo partly drawn) [COMPOUND C],,,,,,43.6 ± 5.0%,1719.1 ± 211.2 AU,37.2 ± 5.6%,1579.9 ± 171.1 AU,43.7 ± 3.7%,1856.8 ± 245.8 AU,None of the doses of COMPOUND C were associated with a statistically significant attenuation

# — patent US20240343699A1, “DERIVATIVES OF SUBSTITUTED MORPHOLINES AND USES THEREOF” (Supernus Pharmaceuticals, Inc., priority 2023, published 2024)
